From the supplement of paper PMC10307832

How the values were obtained:
Assay in all cases: relative viability (nuclei count vs DMSO), 5 days (fraction); higher = more cells survive
EPLC-272H = system: EPLC-272H
Outline: (§1)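 Cells from lung cancer lines were seeded into 1536-well plates and, one day later, dosed by pin tool. Treatments were either a single drug or a fixed dose of an anchor drug with five library-drug doses (not always all listed) in √10 steps. After 5 days, nuclei were stained in a one-step fixation (final 0.05% Triton X-100, 1% formaldehyde, 1 ug/ml Hoechst) and counted on 4× images, and relative viability is the treated-to-vehicle nuclei ratio, as the median of duplicate plates.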

HCC-78 = system: HCC-78
Outline: as §1

CAL-12T = system: CAL-12T
Outline: as §1

HCC-15 = system: HCC-15
Outline: as §1

NCI-H358 = system: NCI-H358
Outline: as §1

ABC-1 = system: ABC-1
Outline: as §1

NCI-H2126 = system: NCI-H2126
Outline: as §1

LXF-289 = system: LXF-289
Outline: as §1

NCI-H441 = system: NCI-H441
Outline: as §1

NCI-H1975 = system: NCI-H1975
Outline: as §1

COR-L 105 = system: COR-L 105
Outline: as §1

NCI-H1915 = system: NCI-H1915
Outline: as §1

NCI-H2085 = system: NCI-H2085
Outline: as §1

UMC-11 = system: UMC-11
Outline: as §1

ChaGo-K-1 = system: ChaGo-K-1
Outline: as §1

NCI-H3122 = system: NCI-H3122
Outline: as §1

NCI-H322M = system: NCI-H322M
Outline: as §1

NCI-H1993 = system: NCI-H1993
Outline: as §1

HOP-62 = system: HOP-62
Outline: as §1

NCI-H2023 = system: NCI-H2023
Outline: as §1

NCI-H1755 = system: NCI-H1755
Outline: as §1

EMC-BAC-2 = system: EMC-BAC-2
Outline: as §1

NCI-H1666 = system: NCI-H1666
Outline: as §1

## O=C(O)c1ccc(-c2c[nH]c3ncc(-c4ccccc4)cc23)cc1C1CCCC1 + N=C(N)NC(=N)NCCc1ccccc1 [Phenformin] (partner 250 µM)
EPLC-272H; first compound 0.04 µM
  relative viability: 0.357
EPLC-272H; first compound 0.1265 µM
  relative viability: 0.295
EPLC-272H; first compound 0.4 µM
  relative viability: 0.356
EPLC-272H; first compound 1.265 µM
  relative viability: 0.328
HCC-78; first compound 0.1265 µM
  relative viability: 0.907
HCC-78; first compound 0.4 µM
  relative viability: 0.828
HCC-78; first compound 1.265 µM
  relative viability: 0.683
CAL-12T; first compound 0.04 µM
  relative viability: 0.549
CAL-12T; first compound 0.1265 µM
  relative viability: 0.629
CAL-12T; first compound 0.4 µM
  relative viability: 0.579
CAL-12T; first compound 1.265 µM
  relative viability: 0.337
HCC-15; first compound 0.04 µM
  relative viability: 0.514
HCC-15; first compound 0.1265 µM
  relative viability: 0.617
HCC-15; first compound 0.4 µM
  relative viability: 0.433
HCC-15; first compound 1.265 µM
  relative viability: 0.234
NCI-H358; first compound 0.04 µM
  relative viability: 0.347
NCI-H358; first compound 0.1265 µM
  relative viability: 0.379
NCI-H358; first compound 0.4 µM
  relative viability: 0.292
NCI-H358; first compound 1.265 µM
  relative viability: 0.124
ABC-1; first compound 0.04 µM
  relative viability: 0.272
ABC-1; first compound 0.1265 µM
  relative viability: 0.232
ABC-1; first compound 0.4 µM
  relative viability: 0.229
ABC-1; first compound 1.265 µM
  relative viability: 0.181
NCI-H2126; first compound 0.04 µM
  relative viability: 0.571
NCI-H2126; first compound 0.1265 µM
  relative viability: 0.581
NCI-H2126; first compound 0.4 µM
  relative viability: 0.505
NCI-H2126; first compound 1.265 µM
  relative viability: 0.441
LXF-289; first compound 0.04 µM
  relative viability: 0.543
LXF-289; first compound 0.1265 µM
  relative viability: 0.507
LXF-289; first compound 0.4 µM
  relative viability: 0.485
LXF-289; first compound 1.265 µM
  relative viability: 0.243
NCI-H441; first compound 0.04 µM
  relative viability: 0.765
NCI-H441; first compound 0.1265 µM
  relative viability: 1.15
NCI-H441; first compound 0.4 µM
  relative viability: 0.807
NCI-H441; first compound 1.265 µM
  relative viability: 0.28
NCI-H1975; first compound 0.04 µM
  relative viability: 0.41
NCI-H1975; first compound 0.1265 µM
  relative viability: 0.423
NCI-H1975; first compound 0.4 µM
  relative viability: 0.388
NCI-H1975; first compound 1.265 µM
  relative viability: 0.298
COR-L 105; first compound 0.04 µM
  relative viability: 0.485
COR-L 105; first compound 0.1265 µM
  relative viability: 0.492
COR-L 105; first compound 0.4 µM
  relative viability: 0.489
COR-L 105; first compound 1.265 µM
  relative viability: 0.446
NCI-H1915; first compound 0.04 µM
  relative viability: 0.376
NCI-H1915; first compound 0.1265 µM
  relative viability: 0.362
NCI-H1915; first compound 0.4 µM
  relative viability: 0.34
NCI-H1915; first compound 1.265 µM
  relative viability: 0.295
NCI-H2085; first compound 0.04 µM
  relative viability: 0.84
NCI-H2085; first compound 0.1265 µM
  relative viability: 0.897
NCI-H2085; first compound 0.4 µM
  relative viability: 0.688
NCI-H2085; first compound 1.265 µM
  relative viability: 0.595
UMC-11; first compound 0.04 µM
  relative viability: 0.331
UMC-11; first compound 0.1265 µM
  relative viability: 0.324
UMC-11; first compound 0.4 µM
  relative viability: 0.306
UMC-11; first compound 1.265 µM
  relative viability: 0.265
ChaGo-K-1; first compound 0.04 µM
  relative viability: 0.477
ChaGo-K-1; first compound 0.1265 µM
  relative viability: 0.541
ChaGo-K-1; first compound 0.4 µM
  relative viability: 0.452
ChaGo-K-1; first compound 1.265 µM
  relative viability: 0.507
NCI-H3122; first compound 0.04 µM
  relative viability: 0.355
NCI-H3122; first compound 0.1265 µM
  relative viability: 0.399
NCI-H3122; first compound 0.4 µM
  relative viability: 0.394
NCI-H3122; first compound 1.265 µM
  relative viability: 0.337
NCI-H322M; first compound 0.04 µM
  relative viability: 0.772
NCI-H322M; first compound 0.1265 µM
  relative viability: 0.832
NCI-H322M; first compound 0.4 µM
  relative viability: 0.782
NCI-H322M; first compound 1.265 µM
  relative viability: 0.63
NCI-H1993; first compound 0.04 µM
  relative viability: 0.574
NCI-H1993; first compound 0.1265 µM
  relative viability: 0.475
NCI-H1993; first compound 0.4 µM
  relative viability: 0.477
NCI-H1993; first compound 1.265 µM
  relative viability: 0.513
HOP-62; first compound 0.04 µM
  relative viability: 0.699
HOP-62; first compound 0.1265 µM
  relative viability: 0.669
HOP-62; first compound 0.4 µM
  relative viability: 0.611
HOP-62; first compound 1.265 µM
  relative viability: 0.595
NCI-H2023; first compound 0.04 µM
  relative viability: 0.412
NCI-H2023; first compound 0.1265 µM
  relative viability: 0.491
NCI-H2023; first compound 0.4 µM
  relative viability: 0.44
NCI-H2023; first compound 1.265 µM
  relative viability: 0.278
NCI-H1755; first compound 0.04 µM
  relative viability: 0.597
NCI-H1755; first compound 0.1265 µM
  relative viability: 0.615
NCI-H1755; first compound 0.4 µM
  relative viability: 0.64
NCI-H1755; first compound 1.265 µM
  relative viability: 0.604
EMC-BAC-2; first compound 0.04 µM
  relative viability: 0.513
EMC-BAC-2; first compound 0.1265 µM
  relative viability: 0.554
EMC-BAC-2; first compound 0.4 µM
  relative viability: 0.527
EMC-BAC-2; first compound 1.265 µM
  relative viability: 0.424
NCI-H1666; first compound 0.04 µM
  relative viability: 0.579
NCI-H1666; first compound 0.1265 µM
  relative viability: 0.552
NCI-H1666; first compound 0.4 µM
  relative viability: 0.508
NCI-H1666; first compound 1.265 µM
  relative viability: 0.363
